Reference: the NIST ThermoML archive (doi:10.1021/je7000683)

Experiments:
[1] = for vapor or sublimation pressure: Liquid, Calculated from knudsen effusion weight loss
[2] = molar heat capacity at constant pressure; details: 101.33 kPa, Small (less than 1 g) adiabatic calorimetry
[3] = Molar enthalpy of transition or fusion; details: Crystal; Adiabatic calorimetry
[4] = activity coefficient (dimensionless); of the first substance listed, at infinite dilution; xn = mol fraction of the nth substance listed; details: Liquid, Chromatography, x1 = 0

CCCCCC[n+]1ccn(C)c1.O=S(=O)([N-]S(=O)(=O)C(F)(F)F)C(F)(F)F
Details	Normal melting temperature [°C]
[1], Crystal, visual observation	-1

O=C1CCCCCN1 [1-aza-2-cycloheptanone]
Details	Triple point temperature [K]	molar heat capacity at constant pressure [J/K/mol]
[1], Crystal, Adiabatic calorimetry	342.22	–
[2], 316 K, Crystal	–	168
[2], 319 K, Crystal	–	169.4
[2], 322 K, Crystal	–	171.1
[2], 323 K, Liquid	–	232.3
[2], 325 K, Crystal	–	173
[2], 326 K, Liquid	–	233.8
[2], 328 K, Crystal	–	175.1
[2], 329 K, Liquid	–	235.3
[2], 331 K, Crystal	–	177.5
[2], 332 K, Liquid	–	236.7
[2], 334 K, Crystal	–	180.1
[2], 335 K, Crystal	–	181
[2], 335 K, Liquid	–	238.2
[2], 338 K, Liquid	–	239.7
[2], 341 K, Liquid	–	241.2
[2], 344 K, Liquid	–	242.7
[2], 347 K, Liquid	–	244.2
[2], 350 K, Liquid	–	245.7
[2], 353 K, Liquid	–	247.1
[2], 356 K, Liquid	–	248.6
[2], 359 K, Liquid	–	250.1
[2], 362 K, Liquid	–	251.6
[2], 365 K, Liquid	–	253.1
[2], 368 K, Liquid	–	254.6

Details	Molar enthalpy of transition or fusion [kcal/mol]
[3]	3.862

[1]
Details	vapor or sublimation pressure [kPa]
315.3 K	0.00286
320.3 K	0.00442
331.9 K	0.01144

O=C1CCCCCN1 [1-aza-2-cycloheptanone] + CCCCCC[n+]1ccn(C)c1.O=S(=O)([N-]S(=O)(=O)C(F)(F)F)C(F)(F)F
Details	activity coefficient
[4], 427.5 K	0.49

ON=C1CCCCC1 [cyclohexanone oxime] + CCCCCC[n+]1ccn(C)c1.O=S(=O)([N-]S(=O)(=O)C(F)(F)F)C(F)(F)F
[4]
Details	activity coefficient
375.4 K	2.41
386 K	2.22
396.5 K	2.03
407 K	1.84
417.1 K	1.67
417.6 K	1.61
427.5 K	1.51
438 K	1.28
